Patent US9206194B2, “Halichondrin B analogs” (Eisai R&D Management Co., Ltd., priority 2008, dated 2015)

Key:
[1] = test system: MES-SA/Dx5-Rx1 uterine sarcoma cells (expresses P-Glycoprotein at high levels); test: Cell growth inhibition assay (methylene blue-based microculture), Dx5-Rx1; parameters: species or system human; details: Dx5-Rx1, doxorubicin-selected P-glycoprotein expressing subline; 4 days incubation; compound in the crystalline form described
Method: (§1) The anti-cancer activity of the compounds described above, in the crystalline forms described, was determined using cell growth inhibition assays as described in Liu, J. et al. Anticancer Research, 27:1509-1511 (2007). The activity data in terms of IC50 nM is described below in Table 9. MES-SA and MES-SA/Dx5-Rx1 uterine sarcoma, were obtained from the American Type Culture Collection and grown in the recommended conditions.
(§2) Cell Growth Inhibition Assays. Cells were seeded at 7.5×10^3 cells/well in 96-well plates in the recommended medium supplemented with 10% FBS and penicillin, streptomycin and L-glutamine. […] The cell growth was determined using modifications (see Finlay G. J., et al. “A semiautomated microculture method for investigating growth inhibitory effects of cytotoxic compounds on exponentially growing carcinoma cells.” Anal Biochem 139: 272-277, 1984) of a methylene blue-based microculture assay (See Towle M. J., et al. “In vitro and in vivo anticancer activities of synthetic macrocyclic ketone analogues of halichondrin B.” Cancer Res 61: 1013-1021, 2001). […] The plates were read at A600-A405.
(§3) Susceptibility of Compound to P-Glycoprotein-Mediated Multidrug Resistance (MDR). […] Both cell lines were seeded at 7.5×10^3 cells/well in McCoy's 5A supplemented with 10% FBS and penicillin, streptomycin and L-glutamine and cell growth was measured as above. […]

[2] = test system: MES-SA uterine sarcoma cells; test: Cell growth inhibition assay (methylene blue-based microculture), MES-SA; parameters: species or system human; details: MDR negative parental cell line, 4 days incubation, compound in the crystalline form described
Method: as §1, §2, §3

[3] = test system: P-Glycoprotein-mediated MDR, Dx5-Rx1 versus MES-SA cells; test: Susceptibility of compound to P-glycoprotein-mediated multidrug resistance (fold resistance); type: cell-based, human; details: fold resistance: ratio of the IC50 values in resistant and parental cell lines
Method: Susceptibility of Compound to P-Glycoprotein-Mediated Multidrug Resistance (MDR). A pair of human uterine sarcoma cell lines was used: MES-SA, the MDR negative parental cell line, and Dx5-Rx1, a cell line derived from MES-SA after long term of exposure to doxorubicin. This subline expresses P-Glycoprotein at high levels. Both cell lines were seeded at 7.5×10^3 cells/well in McCoy's 5A supplemented with 10% FBS and penicillin, streptomycin and L-glutamine and cell growth was measured as above. The ratio of the IC50 values obtained in the parental and resistant cell lines was termed fold resistance and provided an indication of compound susceptibility to P-glycoprotein-mediated MDR against the two cell lines were compared with each other.

SMILES	IC50 [1]	IC50 [2]	Ratio of DxR-Rx1/MES-SA [3]
C=C1C[C@@H]2CC[C@@]34C[C@H]5O[C@H]6[C@@H](O3)[C@H]3O[C@H](CC[C@@H]3O[C@H]6[C@H]5O4)CC(=O)C[C@@H]3[C@@H](OC)[C@@H](C[C@H](O)CO)O[C@H]3C[C@H]3O[C@@H](CC[C@@H]1O2)C[C@@H](C)C3=C [ER-076349 monohydrate]	6.5 nM	0.03 nM	217
C=C1C[C@@H]2CC[C@@]34C[C@H]5O[C@H]6[C@@H](O3)[C@H]3O[C@H](CC[C@@H]3O[C@H]6[C@H]5O4)CC(=O)C[C@@H]3[C@@H](OC)[C@@H](C[C@H](O)CN)O[C@H]3C[C@H]3O[C@H](CC[C@@H]1O2)C[C@@H](C)C3=C [ER-820057 (epi-C23 amine)]	1000 nM	3.3 nM	303
